US20230017532A1 (Hoffmann-La Roche Inc., priority 2018, published 2023)
Counter-ions that a name gives are not always drawn.

system: Acinetobacter baumannii ATCC17978; test: Antimicrobial susceptibility testing: 90% growth inhibitory concentration (IC90) determination, Iso-Sensitest broth, OD 600 nm; assay type: cell-based; conditions: Acinetobacter baumannii, ATCC17978, 16 h, 90% growth inhibitory concentration, Acinetobacter baumannii ATCC17978, Iso-Sensitest broth, OD 600 nm over 16 h; read-out: ATCC 17978 IC90
Experimental: Antimicrobial Susceptibility Testing:
90% Growth Inhibitory Concentration (IC90) Determination
The in vitro antimicrobial activity of the compounds was determined according to the following procedure:
The assay used a 10-points Iso-Sensitest broth medium to measure quantitatively the in vitro activity of the compounds against Acinetobacter baumannii ATCC17978 and Acinetobacter baumannii ATCC17961.
Stock compounds in DMSO were serially twofold diluted (e.g. range from 50 to 0.097 μM final concentration) in 384 wells microtiter plates and inoculated with 49 μl the bacterial suspension in Iso-Sensitest medium to have a final cell concentration of ˜5×10^(5) CFU/ml in a final volume/well of 50 ul/well. Microtiter plates were incubated at 35±2° C.
Bacterial cell growth was determined with the measurement of optical density at λ=600 nm each 20 minutes over a time course of 16 h. Growth inhibition was calculated during the logarithmic growth of the bacterial cells with determination of the concentration inhibiting 50% (IC50) and 90% (IC90) of the growth.
Table 1 provides the 90% growth inhibitory concentrations (IC90) in micromoles per liter of the compounds of present invention obtained against the strain Acinetobacter baumannii ATCC17978 and Acinetobacter baumannii ATCC17961.

| Structure (SMILES) | IC90 [nM] |
| --- | --- |
| COCCOCCOCCNC(=O)c1ccc(Nc2nccn3c(-c4ccc(OC(F)F)cc4)cnc23)cc1C [Example 150, 4-[[3-[4-(difluoro-methoxy)phenyl]imidazo [1,2-a]pyrazin-8-yl]amino]-N-[2-[2-(2-methoxy-ethoxy)ethoxy]ethyl]-2-methylbenzamide] | 1500 |
| CCc1cc(Nc2nccn3c(-c4ccc(OC)cc4)cnc23)ccc1C(=O)NCCOCCNCCO [Example 89, 2-ethyl-N-[2-[2-(2-hydroxyethyl-amino)ethoxy]ethyl]-4-[[3-(4-methoxyphenyl)imidazo[1,2-a]pyrazin-8-yl]amino]benzamide] | 220 |
| CCc1cc(Nc2nccn3c(-c4ccc(OC)c(F)c4F)cnc23)ccc1C(=O)NCCNCCO [Example 196, 4-((3-(2,3-difluoro-4-methoxyphenyl)imidazo[1,2-a]pyrazin-8-yl)amino)-2-ethyl-N-(2-((2-hydroxyethyl)amino)ethyl) benzamide hydrochloride] | 290 |
| Cc1cc(Nc2nccn3c(-c4ccc(Cl)cc4)cnc23)ccc1C(=O)NCCOCCN [Example 99, N-[2-(2-aminoethoxy)ethyl]-4-[[3-(4-chlorophenyl)imidazo[1,2-a]pyrazin-8-yl]amino]-2-methylbenzamide; hydrochloride] | 440 |
| Cc1cc(Nc2nccn3c(-c4ccc(OCC#CCOCCN)cc4)cnc23)ccc1C(=O)NCCOCCN [Example 100, 4-[[3-[4-[4-(2-aminoethoxy)but-2-ynoxy]phenyl]imidazo[1,2-a]pyrazin-8-yl]amino]-N-[2-(2-aminoethoxy)ethyl]-2-methylbenzamide; formic acid] | 440 |
| CCc1cc(Nc2nccn3c(-c4ccc(OC)c(F)c4F)cnc23)ccc1C(=O)NCCCNCCN [Example 185, N-[3-(2-aminoethyl-amino)propyl]-4-[[3-(2,3-difluoro-4-methoxyphenyl)imidazo[1,2-a]pyrazin-8-yl]amino]-2-ethylbenzamide; 2,2,2-trifluoro-acetic acid] | 590 |
| COc1ccc(-c2cnc3c(Nc4ccc(C(=O)NCCOCCNC(C)=O)c(C)c4)nccn23)cc1 [Example 120, N-[2-(2-acetamidoethoxy)ethyl]-4-[[3-(4-methoxyphenyl)imidazo[1,2-a]pyrazin-8-yl]amino]-2-methylbenzamide] | 620 |
| CCc1cc(Nc2nccn3c(-c4ccc(OCC(=O)OC)c(F)c4F)cnc23)ccc1C(=O)NCCOCCN [Example 172, formic acid; methyl 2-[4-[8-[4-[2-(2-aminoethoxy)ethylcarbamoyl]-3-ethylanilino]imidazo[1,2-a]pyrazin-3-yl]-2,3-difluorophenoxy] acetate] | 310 |
| COc1ccc(-c2cnc3c(Nc4ccc(C(=O)NCCOCCCl)c(C)c4)nccn23)cc1 [Example 8, N-(2-(2-chloroethoxy)ethyl)-4-((3-(4-methoxyphenyl)imidazo[1,2-a]pyrazin-8-yl)amino)-2-methylbenzamide] | 630 |
| Cc1cc(Nc2nccn3c(-c4ccc(OC(F)F)cc4)cnc23)ccc1C(=O)NCCNCCN [Example 101, N-[2-(2-aminoethylamino)ethyl]-4-[[3-[4-(difluoromethoxy)phenyl]imidazo [1,2-a]pyrazin-8-yl]amino]-2-methylbenzamide; hydrochloride] | 440 |

same assay, conditions: Acinetobacter baumannii, ATCC17978, 16 h, read-out: ATCC 17978 IC90

| Structure (SMILES) | IC90 [nM] |
| --- | --- |
| Cc1cc(Nc2nccn3c(-c4ccc(OCC#N)c(F)c4)cnc23)ccc1C(=O)NCCOCCN [Example 68, N-[2-(2-aminoethoxy)ethyl]-4-[[3-[4-(cyanomethoxy)-3-fluoro-phenyl]imidazo[1,2-a]pyrazin-8-yl]amino]-2-methyl-benzamide; formic acid] | 220 |
| Cc1cc(Nc2nccn3c(-c4ccc(F)cc4F)cnc23)ccc1C(=O)NCCOCCN [Example 35, N-(2-(2-aminoethoxy)ethyl)-4-((3-(2,4-difluorophenyl)imidazo[1,2-a]pyrazin-8-yl)amino)-2-methylbenzamide hydrochloride] | 770 |
